The target in assay [1] is T1, Histone deacetylase 1 (Homo sapiens, UniProt Q13547). Briefly: Inhibition of HDAC1 at 10 uM.
Assay [2] has as its system T2, Histone deacetylase 4 (Homo sapiens), P56524 [H976Y].
T2 sequence (whole entry): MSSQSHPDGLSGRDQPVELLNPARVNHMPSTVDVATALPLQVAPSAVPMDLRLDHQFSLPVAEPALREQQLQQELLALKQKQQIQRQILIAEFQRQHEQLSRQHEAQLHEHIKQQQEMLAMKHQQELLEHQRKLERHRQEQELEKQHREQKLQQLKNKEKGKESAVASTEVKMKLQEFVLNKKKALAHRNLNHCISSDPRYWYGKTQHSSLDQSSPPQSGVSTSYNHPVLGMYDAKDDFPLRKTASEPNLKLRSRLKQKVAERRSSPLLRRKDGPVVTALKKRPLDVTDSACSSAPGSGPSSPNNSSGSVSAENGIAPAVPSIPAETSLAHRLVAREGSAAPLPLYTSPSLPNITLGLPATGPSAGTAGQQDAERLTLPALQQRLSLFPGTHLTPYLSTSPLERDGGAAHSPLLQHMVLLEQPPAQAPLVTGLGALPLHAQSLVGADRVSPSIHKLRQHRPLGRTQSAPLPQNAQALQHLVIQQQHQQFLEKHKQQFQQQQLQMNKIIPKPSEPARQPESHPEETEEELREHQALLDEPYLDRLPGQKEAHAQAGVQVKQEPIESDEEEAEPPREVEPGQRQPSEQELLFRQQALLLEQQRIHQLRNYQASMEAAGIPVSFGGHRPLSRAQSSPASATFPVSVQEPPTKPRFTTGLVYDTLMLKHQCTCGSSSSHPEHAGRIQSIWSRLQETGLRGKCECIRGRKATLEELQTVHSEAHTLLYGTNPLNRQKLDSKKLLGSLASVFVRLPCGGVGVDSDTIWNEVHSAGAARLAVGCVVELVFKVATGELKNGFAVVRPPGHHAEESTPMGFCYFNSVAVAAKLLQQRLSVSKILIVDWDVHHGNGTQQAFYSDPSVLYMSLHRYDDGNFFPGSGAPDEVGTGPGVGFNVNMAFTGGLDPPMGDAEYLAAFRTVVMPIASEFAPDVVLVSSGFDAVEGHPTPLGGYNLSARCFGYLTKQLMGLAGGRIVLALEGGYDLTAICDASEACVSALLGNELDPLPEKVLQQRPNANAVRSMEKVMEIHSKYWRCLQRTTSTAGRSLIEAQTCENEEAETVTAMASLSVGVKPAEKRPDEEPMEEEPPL
Briefly: Inhibition of HDAC4GOF mutant at 10 uM.

Assay [3] has as its target T3, Protein deacetylase HDAC6 (Homo sapiens) (UniProt Q9UBN7).
T3 sequence (whole entry): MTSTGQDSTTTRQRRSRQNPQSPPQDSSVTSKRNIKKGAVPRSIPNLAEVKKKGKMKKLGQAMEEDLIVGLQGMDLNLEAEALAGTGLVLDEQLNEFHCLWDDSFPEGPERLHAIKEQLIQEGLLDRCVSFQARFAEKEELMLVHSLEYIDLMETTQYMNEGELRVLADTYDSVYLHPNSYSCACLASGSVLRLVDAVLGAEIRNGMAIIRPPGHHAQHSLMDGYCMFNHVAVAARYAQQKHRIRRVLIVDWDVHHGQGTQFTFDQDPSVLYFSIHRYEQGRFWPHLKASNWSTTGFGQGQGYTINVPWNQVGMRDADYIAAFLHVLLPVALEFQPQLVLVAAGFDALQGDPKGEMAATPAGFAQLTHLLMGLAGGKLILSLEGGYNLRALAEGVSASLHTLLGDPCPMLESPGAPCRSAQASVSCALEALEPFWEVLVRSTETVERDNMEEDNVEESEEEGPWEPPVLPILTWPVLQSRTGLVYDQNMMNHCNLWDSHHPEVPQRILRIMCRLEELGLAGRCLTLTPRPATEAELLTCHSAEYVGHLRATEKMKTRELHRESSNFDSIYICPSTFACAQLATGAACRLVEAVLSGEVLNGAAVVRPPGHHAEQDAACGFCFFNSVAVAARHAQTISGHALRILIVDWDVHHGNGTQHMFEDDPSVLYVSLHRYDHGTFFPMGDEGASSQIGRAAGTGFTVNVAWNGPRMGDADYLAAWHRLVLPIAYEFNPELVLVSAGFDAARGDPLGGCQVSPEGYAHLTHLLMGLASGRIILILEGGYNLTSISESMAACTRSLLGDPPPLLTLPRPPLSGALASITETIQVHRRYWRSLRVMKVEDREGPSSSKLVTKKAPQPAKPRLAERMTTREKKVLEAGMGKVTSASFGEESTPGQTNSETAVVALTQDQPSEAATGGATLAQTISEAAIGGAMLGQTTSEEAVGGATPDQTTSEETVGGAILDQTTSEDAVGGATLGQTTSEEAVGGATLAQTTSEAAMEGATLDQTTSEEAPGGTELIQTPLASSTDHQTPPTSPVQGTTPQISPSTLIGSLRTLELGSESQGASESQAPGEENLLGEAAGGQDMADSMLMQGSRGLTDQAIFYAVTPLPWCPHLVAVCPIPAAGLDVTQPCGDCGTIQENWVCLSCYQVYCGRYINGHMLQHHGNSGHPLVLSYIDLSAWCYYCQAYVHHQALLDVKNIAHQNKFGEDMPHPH
Briefly: Inhibition of HDAC6 at 10 uM.

The target of assay [4] is T4, Histone deacetylase 4 (Homo sapiens, UniProt P56524). As to the kind of experiment: Inhibition of wild type HDAC4 at 10 uM.
Assay [5] addresses T5, Histone deacetylase 3 (Homo sapiens, UniProt O15379). Briefly: Inhibition of HDAC3 at 10 uM.
For assay [6], the target named is Histone deacetylase 4 (Homo sapiens, UniProt P56524, H976Y). As to the kind of experiment: Inhibition of HDAC4GOF mutant expressed in Escherichia coli.
Assay [7] has as its target T4, Histone deacetylase 4. As to the kind of experiment: Inhibition of wild type HDAC4 expressed in Escherichia coli.
In assay [8] the target is T1, Histone deacetylase 1. As to the kind of experiment: Inhibition of HDAC1.
For assay [9], the target named is T6, Protein deacetylase HDAC6 (Homo sapiens, UniProt Q9UBN7).
T6 sequence (Q9UBN7 whole entry): T3 sequence (whole entry)
As to the kind of experiment: Inhibition of HDAC6.

Assay [10] deals with T5, Histone deacetylase 3. Briefly: Inhibition of HDAC3 at 5 uM.
Assay [11] concerns the target T5, Histone deacetylase 3. As to the kind of experiment: Inhibition of HDAC3.
The target of assay [12] is T3, Protein deacetylase HDAC6 (Homo sapiens). Briefly: Inhibition of HDAC6 at 9 nM.
The target in another assay is Tubulin. Briefly: Inhibition of tubulin deacetylation in human HCT116 cells. Type of assay: cell-based. The settings on record: hct-116.

pIC50: −log10 of the molar value. Calls of active or inactive are those of the source. No cut-off for these calls is given here.

T1 sequence (Q13547 whole entry): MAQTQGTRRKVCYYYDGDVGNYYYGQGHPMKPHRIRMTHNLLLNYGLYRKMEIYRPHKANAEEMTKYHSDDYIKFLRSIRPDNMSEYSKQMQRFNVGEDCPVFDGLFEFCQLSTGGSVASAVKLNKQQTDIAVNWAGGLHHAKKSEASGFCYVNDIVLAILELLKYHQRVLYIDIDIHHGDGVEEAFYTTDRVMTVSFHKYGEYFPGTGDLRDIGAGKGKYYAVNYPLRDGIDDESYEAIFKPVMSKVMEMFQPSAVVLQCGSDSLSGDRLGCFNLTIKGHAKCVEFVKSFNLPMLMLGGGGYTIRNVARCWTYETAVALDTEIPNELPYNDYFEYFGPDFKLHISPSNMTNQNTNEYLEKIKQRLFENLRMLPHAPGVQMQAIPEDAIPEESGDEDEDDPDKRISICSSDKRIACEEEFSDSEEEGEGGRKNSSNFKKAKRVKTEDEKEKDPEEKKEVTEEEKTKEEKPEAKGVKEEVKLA
T5 sequence (O15379 whole entry): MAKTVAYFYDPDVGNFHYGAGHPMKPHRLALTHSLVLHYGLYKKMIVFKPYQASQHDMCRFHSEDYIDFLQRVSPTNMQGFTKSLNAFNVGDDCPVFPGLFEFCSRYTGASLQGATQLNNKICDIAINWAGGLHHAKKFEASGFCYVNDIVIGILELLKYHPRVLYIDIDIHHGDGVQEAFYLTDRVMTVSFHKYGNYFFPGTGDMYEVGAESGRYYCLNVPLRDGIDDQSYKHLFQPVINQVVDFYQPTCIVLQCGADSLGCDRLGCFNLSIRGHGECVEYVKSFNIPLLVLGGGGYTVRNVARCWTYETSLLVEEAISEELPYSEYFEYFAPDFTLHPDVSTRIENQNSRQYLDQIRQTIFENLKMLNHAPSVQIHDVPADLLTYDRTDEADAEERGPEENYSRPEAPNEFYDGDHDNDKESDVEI
T4 sequence (P56524 whole entry): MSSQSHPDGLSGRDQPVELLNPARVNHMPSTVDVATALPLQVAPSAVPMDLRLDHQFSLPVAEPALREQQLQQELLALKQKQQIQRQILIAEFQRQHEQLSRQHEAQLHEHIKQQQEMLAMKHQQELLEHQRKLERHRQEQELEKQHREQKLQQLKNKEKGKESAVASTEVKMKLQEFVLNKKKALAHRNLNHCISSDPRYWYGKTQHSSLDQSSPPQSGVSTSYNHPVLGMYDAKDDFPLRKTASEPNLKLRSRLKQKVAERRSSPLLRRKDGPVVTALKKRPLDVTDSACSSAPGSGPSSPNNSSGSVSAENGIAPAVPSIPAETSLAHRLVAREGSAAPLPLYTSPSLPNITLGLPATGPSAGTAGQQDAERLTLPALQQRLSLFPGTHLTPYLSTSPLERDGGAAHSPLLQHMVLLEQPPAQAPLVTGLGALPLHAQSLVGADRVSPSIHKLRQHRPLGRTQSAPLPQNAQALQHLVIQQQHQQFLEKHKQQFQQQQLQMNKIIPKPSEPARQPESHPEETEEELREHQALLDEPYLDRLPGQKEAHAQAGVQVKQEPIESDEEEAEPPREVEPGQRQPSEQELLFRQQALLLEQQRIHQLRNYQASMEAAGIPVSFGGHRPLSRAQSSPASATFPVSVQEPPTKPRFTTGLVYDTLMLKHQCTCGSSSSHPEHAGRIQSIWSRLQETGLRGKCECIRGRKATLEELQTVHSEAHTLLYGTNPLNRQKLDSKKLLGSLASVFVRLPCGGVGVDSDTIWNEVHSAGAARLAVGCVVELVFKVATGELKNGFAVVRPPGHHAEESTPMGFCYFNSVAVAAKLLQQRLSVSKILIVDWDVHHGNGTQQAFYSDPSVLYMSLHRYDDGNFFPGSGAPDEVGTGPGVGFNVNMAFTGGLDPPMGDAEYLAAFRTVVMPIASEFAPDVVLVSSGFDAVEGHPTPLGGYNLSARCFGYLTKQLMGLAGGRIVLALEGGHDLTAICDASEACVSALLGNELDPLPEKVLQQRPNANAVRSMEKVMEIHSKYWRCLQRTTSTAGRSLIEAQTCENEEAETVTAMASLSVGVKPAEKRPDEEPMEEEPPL

With `O=C(c1ccc(P(=O)(O)O)s1)N1CCc2ccccc21`, the result (at Histone deacetylase 1 [1]; in assay [2]; in [3]; on Histone deacetylase 4 [4]; at Histone deacetylase 3 [5]) was inactive.

Broadly, the pIC50 is the IC50 on a negative log10 scale, so that one unit is a factor of ten. Higher therefore signals a small IC50. One may read the inhibition as the percentage by which the read-out fell short of the control. Low values mean a weak effect, high ones a strong effect. In the case of `O=C(c1ccc(C(=O)C(F)(F)F)s1)N1CCn2c(-c3ccccc3)cnc2C1`, the negative-log IC50 (pIC50) was 6.43 on Histone deacetylase 4 [6], 6.49 against Histone deacetylase 4 [7], 5.26 against Histone deacetylase 1 [8] and 6.51 in [9]. The inhibition at Histone deacetylase 3 [10] turned out to be 44%.

`CN(Cc1ccccc1)C(=O)c1ccc(C(O)C(F)(F)F)s1` (stereo not given): the outcome (on Histone deacetylase 1 [1]; in assay [2]; in assay [3]; on Histone deacetylase 4 [4]; at Histone deacetylase 3 [5]) was inactive.

As to `O=C(NCC1CCCCC1)c1ccc(C(=O)C(F)(F)F)cc1`, the result on Histone deacetylase 1 [1] and on Histone deacetylase 3 [5] was inactive. The inhibition is 31% in assay [2] and 32% against Histone deacetylase 4 [4]. The pIC50 in [9] is 5.60.

`CS(=O)(=O)c1ccc(C(=O)N2CCc3ccccc32)s1`: the outcome (on Histone deacetylase 1 [1]; in assay [2]; on Histone deacetylase 4 [4]; at Histone deacetylase 3 [5]) was inactive. Moreover, the inhibition in assay [3] came out at 47%.

With `O=C(NCC1CCCCC1)c1cccc(C(=O)C(F)(F)F)c1`, the result (on Histone deacetylase 1 [1]; in [2]; on Histone deacetylase 4 [4]; at Histone deacetylase 3 [5]) was inactive. The compound further had a pIC50 in assay [9] of 5.38.

As to `C[C@@H](NC(=O)c1ccc(C(=O)NO)s1)c1ccccc1`, the pIC50 on Histone deacetylase 4 [6] was 7.00; against Histone deacetylase 4 [7], 5.57; against Histone deacetylase 3 [11] it was 8.00. The compound further displayed an inhibition in assay [12] of 94%.

With `O=C(c1ccc(C(=O)C(F)(F)F)s1)N1CCc2ccccc21`, the pIC50 against Histone deacetylase 4 [6] was 6.52; against Histone deacetylase 4 [7] it was 6.89; at Histone deacetylase 3 [11], 5.77; against Histone deacetylase 1 [8], 5.70; in assay [9], 6.70.

Consider `CC(=O)c1ccc(C(=O)N[C@H](C)c2ccccc2)s1`, for which the outcome (on Histone deacetylase 1 [1]; in [2]; at Histone deacetylase 4 [4]; at Histone deacetylase 3 [5]) was inactive. Besides, in assay [9], the pIC50 is 5.16.

In the case of `CN(Cc1ccccc1)S(=O)(=O)c1csc(C(=O)C(F)(F)F)c1`, the outcome (on Histone deacetylase 1 [1]; in assay [2]; at Histone deacetylase 3 [5]) was inactive. Also, the values for the pIC50 (against Histone deacetylase 4 [7]; in assay [9]) were 5.03 and 5.60, respectively.

With `COc1ccc(CNC(=O)c2ccc(C(=O)C(F)(F)F)s2)cc1`, the pIC50 is 7.15 on Histone deacetylase 4 [6]; 6.74 on Histone deacetylase 4 [7]; 6.92 at Histone deacetylase 3 [11]; 6.68 against Histone deacetylase 1 [8]; 6.62 in assay [9].

`COc1ccc(CNC(=O)c2ccc(C(=O)C(F)(F)C(F)(F)F)s2)cc1`: the outcome (in assay [2]; in assay [3]; at Histone deacetylase 4 [4]) was inactive. Further, the values for the pIC50 on Histone deacetylase 3 [11] and against Histone deacetylase 1 [8] were 5.54 and 5.38, respectively.

As for `O=C(c1ccc(B(O)O)s1)N1CCc2ccccc21`, the outcome (at Histone deacetylase 1 [1]; in assay [2]; on Histone deacetylase 4 [4]; on Histone deacetylase 3 [5]) was inactive. In [3], this compound came in with an inhibition of 42%.

Consider `CN(Cc1ccc2nccnc2c1)C(=O)c1ccc(C(=O)C(F)(F)F)s1`, for which the pIC50 against Histone deacetylase 4 [6] is 7.06; against Tubulin, 4.92; on Histone deacetylase 4 [7], 7.01; on Histone deacetylase 3 [11], 6.17; on Histone deacetylase 1 [8], 6.24; in [9], 7.05.

For `CN(Cc1ccc2nccnc2c1)C(=O)c1ccc(C(=O)O)s1`, the outcome (at Histone deacetylase 1 [1]; in [2]; in assay [3]; on Histone deacetylase 4 [4]; on Histone deacetylase 3 [5]) was inactive.

On to `O=C(c1ccc(C(=O)C(F)(F)F)[nH]1)N1CCc2ccccc21`, for which the result (at Histone deacetylase 1 [1]; in [2]; at Histone deacetylase 3 [5]) was inactive. Moreover, the inhibition on Histone deacetylase 4 [4] stood at 47%. This compound also had a pIC50 in assay [9] of 6.06.

With `O=C(c1ccc(C2(C(F)(F)F)OCCO2)s1)N1CCc2ccccc21`, the result (on Histone deacetylase 1 [1]; in assay [2]; in [3]; at Histone deacetylase 4 [4]; on Histone deacetylase 3 [5]) was inactive.

Take `C[C@H](NC(=O)c1ccc(C(=O)C(F)(F)F)s1)c1ccccc1`: the pIC50 is 6.55 against Histone deacetylase 4 [6]; 6.77 against Histone deacetylase 4 [7]; 5.03 against Histone deacetylase 3 [11]; 5.28 against Histone deacetylase 1 [8]; 6.68 in [9].

For the origin of these results see ChEMBL document CHEMBL1150306, “2-Trifluoroacetylthiophenes, a novel series of potent and selective class II histone deacetylase inhibitors” (Bioorg Med Chem Lett, 2008).
